The source of these data is ChEMBL document CHEMBL3272309, “Potential central nervous system antitumor agents. Aziridinylbenzoquinones. 1” (J Med Chem, 1976).

Active and inactive are the calls of the source. The calls are words filed in the database; no cut-off is given here.

As a reminder, the T/C is the ratio of treated to control.

For one experiment, the system named is L1210. The experiment is described as follows: Antitumor activity against mouse L1210 cells allografted in ip dosed mouse. The class given is functional, organism-based.
Turning to `CC(=O)NC1=C(Cl)C(=O)C(NC(C)=O)=C(Cl)C1=O`, the result was inactive.

Take `CC(=O)NC1=C(N2CC2(C)C)C(=O)C(NC(C)=O)=C(N2CC2(C)C)C1=O`: the result was inactive.

On to `CCCSC1=C(N2CC2)C(=O)C(SCCC)=C(N2CC2)C1=O`, for which the outcome was inactive.

As to `CCOC(=N)C1=C(Cl)C(=O)C(C(=N)OCC)=C(Cl)C1=O`, the outcome was inactive.

For `COC1=C(Br)C(=O)C(OC)=C(Br)C1=O`, the result was inactive.

Regarding `NC1=C(Cl)C(=O)C(N)=C(Cl)C1=O`, the outcome was inactive.

Consider `O=C1C(Cl)=C(Cl)C(=O)C(Cl)=C1Cl`, for which the result was inactive.

As for `O=C1C(Cl)=C(N2CC2)C(=O)C(Cl)=C1N1CC1`, the result was inactive.

The next experiment deals with L1210. The experiment is described as follows: Antitumor activity against mouse L1210 cells allografted in ip dosed mouse administered qd on day 1, 5 and 9 relative to control. It counts as functional.
Regarding `CCSC1=C(N2CC2)C(=O)C(SCC)=C(N2CC2)C1=O`, the T/C came to 130%.

Take `CC1(C)CN1C1=C(Br)C(=O)C(N2CC2(C)C)=C(Br)C1=O`: the outcome was inactive.

For `CC1(C)CN1C1=C(Cl)C(=O)C(N2CC2(C)C)=C(Cl)C1=O`, the outcome was inactive.

On to `CC1CN1C1=C(Br)C(=O)C(N2CC2C)=C(Br)C1=O` (stereo not given), for which the result was inactive.

`CC1CN1C1=C(Cl)C(=O)C(N2CC2C)=C(Cl)C1=O` (stereo not given): the result was inactive.

Regarding `O=C1C(Br)=C(N2CC2)C(=O)C(Br)=C1N1CC1`, the result was inactive.

For the molecule `O=C1C(Cl)=C(N2CC2)C(=O)C(Cl)=C1N1CC1`, the result was inactive.
